Measurements: patent US9676714B2, “Sulfonylindole derivatives and method for preparing the same” (Daewoong Pharmaceutical Co., Ltd., priority 2013, dated 2017)
Structures can show the parent of a compound that is named as a salt.

Columns and labels:
[1] = test system: basal gastric acid secretion; test: Inhibitory effect on the basal gastric acid secretion in pylorus-ligated rats (Shay's rat model); format: in vivo, Sprague Dawley (SD) rats; details: 5 h, male SD rats, 3 mg/kg/2 ml into the duodenum, five hours after the ligation, total gastric acid secretion vs control group
How it was run: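 Male SD rats (180–220 g) were fasted 18 h and pylorus-ligated under isoflurane, then given test compound intraduodenally at 3 mg/kg in 10% ethanol/20% PEG 400/10% Cremophor. Gastric juice was collected 5 h after ligation and titrated to pH 7.0 with 0.1 N NaOH. Inhibition was calculated as % reduction in total acid output relative to vehicle controls.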

[2] = target: T1, proton pump (H+/K+-ATPase) (Sus scrofa, UniProt P19156); test: Measurement of inhibitory effects on proton pump (H+/K+-ATPase) activities; format: biochemical; details: hog gastric vesicles, K+-specific H+/K+-ATPase activity, Tris-HCl buffer pH 7.4, 37° C. for 40 minutes, malachite green Pi readout
T1 construct: Gastric vesicles were prepared from hog stomach via centrifugal separation; from tissue; host or cells: hog stomach (gastric vesicles, method of Rabon et al. 1988)
How it was run: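 Hog gastric vesicles in 60 mmol/l Tris-HCl pH 7.4 with 0.5% DMSO were treated with compounds at room temperature; reaction was started with 10 μl of 10 mmol/l ATP stock. Released Pi was read at 570 nm, K+-specific activity taken as the ±K+ difference. IC50 from 4-parameter logistic fit.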

T1 sequence (P19156 whole entry): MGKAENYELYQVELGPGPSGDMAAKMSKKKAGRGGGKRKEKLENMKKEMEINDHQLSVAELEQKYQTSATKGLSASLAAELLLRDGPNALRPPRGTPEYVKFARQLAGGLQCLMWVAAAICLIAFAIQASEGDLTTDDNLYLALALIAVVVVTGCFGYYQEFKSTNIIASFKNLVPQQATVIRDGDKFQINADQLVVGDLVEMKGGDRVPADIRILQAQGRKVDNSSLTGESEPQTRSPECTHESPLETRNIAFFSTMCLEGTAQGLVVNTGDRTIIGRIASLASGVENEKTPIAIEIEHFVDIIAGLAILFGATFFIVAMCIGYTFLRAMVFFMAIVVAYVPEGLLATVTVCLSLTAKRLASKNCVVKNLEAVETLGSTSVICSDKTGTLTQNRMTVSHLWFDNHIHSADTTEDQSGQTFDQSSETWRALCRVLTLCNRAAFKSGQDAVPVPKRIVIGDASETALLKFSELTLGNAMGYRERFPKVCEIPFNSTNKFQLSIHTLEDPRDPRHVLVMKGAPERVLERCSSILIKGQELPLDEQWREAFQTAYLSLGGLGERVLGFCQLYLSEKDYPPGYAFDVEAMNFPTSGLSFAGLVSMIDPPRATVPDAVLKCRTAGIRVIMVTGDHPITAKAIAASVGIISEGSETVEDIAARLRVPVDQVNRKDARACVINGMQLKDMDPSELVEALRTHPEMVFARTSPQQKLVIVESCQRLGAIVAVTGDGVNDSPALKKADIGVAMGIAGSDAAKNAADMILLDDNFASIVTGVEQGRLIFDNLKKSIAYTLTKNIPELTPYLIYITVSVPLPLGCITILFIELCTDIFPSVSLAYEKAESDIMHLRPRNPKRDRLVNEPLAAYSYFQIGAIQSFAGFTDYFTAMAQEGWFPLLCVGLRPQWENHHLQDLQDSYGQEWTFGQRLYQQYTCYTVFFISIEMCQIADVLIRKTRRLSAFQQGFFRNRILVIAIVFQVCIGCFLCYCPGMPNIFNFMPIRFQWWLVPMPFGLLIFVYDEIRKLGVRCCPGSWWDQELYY
T1 sequence (P18434 whole entry partner): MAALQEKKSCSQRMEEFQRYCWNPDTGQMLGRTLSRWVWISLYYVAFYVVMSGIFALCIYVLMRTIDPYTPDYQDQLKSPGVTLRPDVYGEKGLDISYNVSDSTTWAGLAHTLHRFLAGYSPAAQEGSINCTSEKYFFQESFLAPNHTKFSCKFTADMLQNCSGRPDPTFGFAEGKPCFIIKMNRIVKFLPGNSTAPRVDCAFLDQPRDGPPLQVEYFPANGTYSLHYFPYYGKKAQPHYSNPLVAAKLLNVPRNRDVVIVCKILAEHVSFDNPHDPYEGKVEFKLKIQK

Row | SMILES | inhibition in vivo at 3 mg/kg [1] | IC50 [2]
1 | CNCc1cn(S(=O)(=O)c2cncc(F)c2)c2cc(Nc3ccc(C(F)(F)F)nc3Cl)ccc12 [Example 218, N-(2-chloro-6-(trifluoromethyl)pyridin-3-yl)-1-((5-fluoropyridin-3-yl)sulfonyl)-3-((methylamino)methyl)-1H-indol-6-amine hydrochloride] | 49% | 2.92 µM
2 | CNCc1cn(S(=O)(=O)c2cccc(C)c2)c2cc(Nc3ccc(C)cc3F)ccc12 [Example 226, N-(2-fluoro-4-methylphenyl)-3-((methylamino)methyl)-1-(m-tolylsulfonyl)-1H-indol-6-amine hydrochloride] | 44% | 1.16 µM
3 | CNCc1cn(S(=O)(=O)c2cccnc2)c2cc(Cc3ccc(C)cc3Cl)ccc12 [Example 267, 1-(6-(2-chloro-4-methylbenzyl)-1-(pyridin-3-ylsulfonyl)-1H-indol-3-yl)-N-methylmethanamine hydrochloride] | 44% | 0.23 µM
4 | CNCc1cn(S(=O)(=O)c2cccnc2)c2cc(Cc3ccc(C)cc3)ccc12 [Example 270, N-methyl-1-(6-(4-methylbenzyl)-1-(pyridin-3-ylsulfonyl)-1H-indol-3-yl)methanamine hydrochloride] | 38% | 0.79 µM
5 | CNCc1cn(S(=O)(=O)c2cccnc2)c2cc(Cc3ccc(C)cc3F)ccc12 [Example 272, 1-(6-(2-fluoro-4-methylbenzyl)-1-(pyridin-3-ylsulfonyl)-1H-indol-3-yl)-N-methylmethanamine hydrochloride] | 41% | 0.5 µM
6 | CNCc1cn(S(=O)(=O)c2cccnc2)c2cc(Cc3ccc(F)cc3Cl)ccc12 [Example 273, 1-(6-(2-chloro-4-fluorobenzyl)-1-(pyridin-3-ylsulfonyl)-1H-indol-3-yl)-N-methylmethanamine hydrochloride] | 32% | 0.37 µM
7 | CNCc1cn(S(=O)(=O)c2cccnc2)c2cc(Cc3ccc(C)c(F)c3F)ccc12 [Example 286, 1-(6-(2,3-difluoro-4-methylbenzyl)-1-(pyridin-3-ylsulfonyl)-1H-indol-3-yl)-N-methylmethanamine hydrochloride] | 35% | 0.39 µM
8 | CNCc1cn(S(=O)(=O)c2cccc(C(F)(F)F)c2)c2cc(N(C)c3ccc(OC)nc3Cl)ccc12 [Example 315, N-(2-chloro-6-methoxypyridin-3-yl)-N-methyl-3-((methylamino)methyl)-1-((3-(trifluoromethyl)phenyl)sulfonyl)-1H-indol-6-amine hydrochloride] | 45% | 2.95 µM
9 | CNCc1cn(S(=O)(=O)c2cccc(F)c2)c2cc(Nc3ccc(Cl)cc3Cl)cnc12 [Example 342, N-(2,4-dichlorophenyl)-1-((3-fluorophenyl)sulfonyl)-3-((methylamino)methyl)-1H-pyrrolo[3,2-b]pyridin-6-amine hydrochloride] | 41% | 0.4 µM
10 | CNCc1cn(S(=O)(=O)c2cccc(F)c2)c2cc(Nc3ccc(OC(F)(F)F)cc3OC)ncc12 [Example 356, 1-((3-fluorophenyl)sulfonyl)-N-(2-methoxy-4-(trifluoromethoxy)phenyl)-3-((methylamino)methyl)-1H-pyrrolo[3,2-c]pyridin-6-amine hydrochloride] | 63% | 2 µM
